{
  "source": "patent US6660755B2",
  "about": "“Substituted diaryl or diheteroaryl methans, ethers and amines having retinoid agonist, antagonist or inverse agonist type biological activity” (Allergan, Inc., priority 1997, dated 2003)",
  "key": {"RARα": {"target": "RARα (Homo sapiens, UniProt P10276, E106G/G107S/G110V)", "sequence (P10276 whole entry E106G/G107S/G110V, one chain of several)": "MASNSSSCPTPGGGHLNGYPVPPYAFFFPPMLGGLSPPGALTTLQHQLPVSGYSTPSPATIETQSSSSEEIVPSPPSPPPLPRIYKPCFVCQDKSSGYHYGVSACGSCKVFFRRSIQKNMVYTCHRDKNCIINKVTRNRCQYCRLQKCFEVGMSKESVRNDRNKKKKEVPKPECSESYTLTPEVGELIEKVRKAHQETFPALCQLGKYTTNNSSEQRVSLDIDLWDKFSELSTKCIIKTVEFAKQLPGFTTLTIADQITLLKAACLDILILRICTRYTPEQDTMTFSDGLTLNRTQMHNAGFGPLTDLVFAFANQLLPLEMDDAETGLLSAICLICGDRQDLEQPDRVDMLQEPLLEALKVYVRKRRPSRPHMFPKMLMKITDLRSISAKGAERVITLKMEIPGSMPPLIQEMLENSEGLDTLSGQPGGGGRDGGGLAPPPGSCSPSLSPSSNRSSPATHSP", "experiment": "PGR assay (RAR-P-GR holoreceptor transactivation), RARα", "format": "cell-based", "details": "for EC50: PGR assay (transactivation), CV-1 cells, luciferase reporter; for Emax: 18 h", "excerpt": "(§1) A holoreceptor transactivation assay and a ligand binding assay which measure the antagonist/agonist like activity of the compounds of the invention, or their ability to bind to the several retinoid receptor subtypes, respectively, are described in published PCT Application No. WO WO93/11755 (particularly on pages 30-33 and 37-41) published on Jun. 24, 1993, the specification of which is also incorporated herein by reference. A detailed experimental procedure for holoreceptor transactivations has been described by Heyman et al. Cell 1992, 68, 397-406; Allegretto et al. J. Biol. Chem. 1993 268, 26625-26633, and Mangelsdorf et al. The Retinoids: Biology, Chemistry and Medicine, pp 319-349, Raven Press Ltd., New York, which are expressly incorporated herein by reference. The results obtained in this assay are expressed in EC50 numbers, as they are also in the chimeric receptor transactivation assay. The results of ligand binding assay are expressed in Kd numbers. (See Cheng et al. Biochemical Pharmacology 22, 3099-3108, expressly incorporated herein by reference.) Still another transactivation assay, the “PGR assay” is described in the publication Klein et al. J. Biol. Chem. 1996, 271, 22692-22696, which is expressly incorporated herein by reference, and a detailed description is also provided below. The results of the PGR assay are also expressed in EC50 numbers (nanomolar concentration).\n(§2) RAR-P-GR holoreceptor Transactivation Assay\n(§3) CV-1 cells (4×10^5 cells/well) were transiently transfected with the luciferase reporter plasmid MTV-4(R5G)-Luc (0.7 μg/well) containing four copies of the R5G retinoid DNA response element along with the RXRα expression plasmid pRS-hRXRa (0.1 μg/well) and one of the RAR-P-GR expression plasmids (0.05 μg/well) in 12 well plates via calcium phosphate precipitation Chen et al. Mol. Cell. Biol. 1987, 7, 2745-2752 as described by Klein et al. J. Biol. Chem. 1996, 271, 22692, referenced above. The three different RAR-P-GR expression plasmids, pRS-RARα-P-GR, pcDNA3-RARβ-P-GR and pcDNA3-RARγ-P-GR, express RARα, RARβ and RARγ receptors, respectively, which contain modified DNA binding domains such that their “P-boxes” have been altered to that of the glucocorticoid receptor. These RAR-P-GR receptors bind to DNA as heterodimeric complexes with RXR. Specifically, the RAR-P-GR receptors bind retinoic acid response elements designated R5G, comprised of two RAR half sites (nucleotide sequence 5′-GGTTCA-3′) separated by 5 base pairs in which the 3′-half site has been modified to that of a glucocorticoid receptor half site, 5′-AGAACA-3′. To allow for various in transfection efficiency a β-galactosidase expression plasmid (0.01 μg/well) was used as an internal control. Alternatively, the assay was performed in a 96-well microtiter plate format (5000 cells/well) in a manner which was identical to that described above except ⅕ of the amount of the DNA-calcium phosphate precipitant (20 μl instead of 100 Al) was applied to each well. Eighteen hours after introduction of the DNA precipitants, cells were rinsed with phosphate buffered saline (PBS) and fed with D-MEM (Gibco-BRL) containing 10% activated charcoal extracted fetal bovine serum (Gemini Bio-Products). After rinsing with PBS cells were lysed with luciferase activity was measured as previously described in de Wet Mol. Cell. Biol. 1987, 7, 725-737. Luciferase values represent the mean±SEM of triplicate determinations normalized to β-galactosidase activity. The results of the PGR assay are also expressed in EC50 numbers (nanomolar concentration)."}, "RARγ": {"target": "T1, RARγ (Homo sapiens, UniProt P13631, E108G/G109S/G112V)", "T1 construct": "expressed in transfected cells; host or cells: CV-1 cells", "T1 sequence (P13631 1-454 E108G/G109S/G112V)": "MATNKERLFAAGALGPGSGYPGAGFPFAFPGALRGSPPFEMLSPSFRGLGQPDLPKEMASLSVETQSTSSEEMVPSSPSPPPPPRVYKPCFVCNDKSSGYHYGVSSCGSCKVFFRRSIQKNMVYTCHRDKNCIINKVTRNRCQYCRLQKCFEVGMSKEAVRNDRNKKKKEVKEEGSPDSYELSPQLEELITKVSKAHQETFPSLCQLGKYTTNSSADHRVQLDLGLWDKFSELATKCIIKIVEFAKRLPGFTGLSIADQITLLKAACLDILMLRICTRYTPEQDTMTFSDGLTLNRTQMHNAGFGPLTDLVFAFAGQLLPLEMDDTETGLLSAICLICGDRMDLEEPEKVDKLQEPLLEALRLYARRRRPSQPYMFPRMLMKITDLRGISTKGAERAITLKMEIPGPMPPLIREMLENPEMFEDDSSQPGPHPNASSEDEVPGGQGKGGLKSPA", "T1 sequence (P19793 1-462 partner)": "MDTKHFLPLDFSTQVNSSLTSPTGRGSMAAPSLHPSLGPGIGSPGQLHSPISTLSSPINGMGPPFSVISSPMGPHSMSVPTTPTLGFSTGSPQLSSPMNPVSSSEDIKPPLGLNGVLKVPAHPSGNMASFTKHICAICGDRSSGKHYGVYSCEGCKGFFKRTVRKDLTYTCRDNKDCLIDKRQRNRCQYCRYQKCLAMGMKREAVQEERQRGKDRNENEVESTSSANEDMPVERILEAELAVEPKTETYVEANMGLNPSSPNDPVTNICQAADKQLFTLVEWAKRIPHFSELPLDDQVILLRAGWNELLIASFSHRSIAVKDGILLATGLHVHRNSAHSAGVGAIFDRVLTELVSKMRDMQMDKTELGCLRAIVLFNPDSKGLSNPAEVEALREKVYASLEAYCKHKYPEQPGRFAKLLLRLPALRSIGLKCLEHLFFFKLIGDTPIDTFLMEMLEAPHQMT", "experiment": "PGR assay (RAR-P-GR holoreceptor transactivation), RARγ", "format": "cell-based", "details": "for EC50: PGR assay (transactivation), CV-1 cells, luciferase reporter; for % Efficiency RARγ: efficiency relative to all-trans-retinoic acid, PGR assay", "excerpt": "as §1, §2, §3"}, "RARβ": {"target": "T2, RARβ (Homo sapiens, UniProt P10826)", "T2 sequence (P10826 1-455)": "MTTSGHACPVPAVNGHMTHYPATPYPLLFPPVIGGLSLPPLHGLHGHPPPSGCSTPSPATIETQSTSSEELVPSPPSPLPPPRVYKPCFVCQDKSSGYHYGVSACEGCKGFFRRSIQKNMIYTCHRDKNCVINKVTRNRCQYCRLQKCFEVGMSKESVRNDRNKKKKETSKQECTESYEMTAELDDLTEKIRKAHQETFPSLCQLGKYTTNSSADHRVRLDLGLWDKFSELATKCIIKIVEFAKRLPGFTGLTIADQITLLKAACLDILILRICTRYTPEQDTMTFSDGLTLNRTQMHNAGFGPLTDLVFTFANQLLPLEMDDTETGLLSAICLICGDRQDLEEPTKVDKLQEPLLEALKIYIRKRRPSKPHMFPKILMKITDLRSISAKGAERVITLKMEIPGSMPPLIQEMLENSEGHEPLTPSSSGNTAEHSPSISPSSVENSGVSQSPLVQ", "experiment": "Ligand binding assay, RARβ", "details": "read-out: Kd RABβ", "excerpt": "as §1"}, "[1]": {"details": "efficiency relative to all-trans-retinoic acid, PGR assay"}},
  "data": [
    {"smiles": "CC(C)(C)c1ccc(C#Cc2ccc(C(=O)O)cn2)cc1Oc1ccc(C(F)(F)F)cc1", "note": "[Compound 6, 6-[[4′-tert-Butyl-3′-(4″-trifluomethyl)phenoxy]phenylethynyl]-3-nicotinic Acid]", "values": [
      {"measurement": "EC50", "setting": "RARα", "result": "> 10", "unit": "µM"},
      {"measurement": "% Efficiency RARα", "setting": "RARα; [1]", "result": 0, "unit": "%"},
      {"measurement": "EC50", "setting": "RARγ", "result": "> 10", "unit": "µM"},
      {"measurement": "% Efficiency RARγ", "setting": "RARγ", "result": 70, "unit": "%"},
      {"measurement": "Kd", "setting": "RARβ", "result": 113, "unit": "nM"}
    ]},
    {"smiles": "COC(=O)c1ccc(Oc2cc(C#Cc3ccc(C(=O)O)c(F)c3)ccc2C(C)(C)C)cc1", "note": "[Compound 10, 4-[[4′-tert-Butyl-3′-(4″-carbomethoxy)phenoxy]phenylethynyl]-2-fluorobenzoic Acid]", "values": [
      {"measurement": "Emax", "setting": "RARα; [1]", "result": 0, "unit": "%"},
      {"measurement": "EC50", "setting": "RARα", "result": "> 10", "unit": "µM"},
      {"measurement": "EC50", "setting": "RARγ", "result": "> 10", "unit": "µM"},
      {"measurement": "% Efficiency RARγ", "setting": "RARγ", "result": 0, "unit": "%"},
      {"measurement": "Kd", "setting": "RARβ", "result": 14, "unit": "nM"}
    ]},
    {"smiles": "CC(C)(C)c1ccc(C#Cc2ccc(C(=O)O)c(F)c2)cc1Oc1ccc([N+](=O)[O-])cc1", "note": "[Compound 11, 4-[[4′-tert-Butyl-3′-(4″-nitro)phenoxy]phenylethynyl]-2-fluoro-benzoic Acid]", "values": [
      {"measurement": "Emax", "setting": "RARα; [1]", "result": 0, "unit": "%"},
      {"measurement": "EC50", "setting": "RARα", "result": "> 10", "unit": "µM"},
      {"measurement": "EC50", "setting": "RARγ", "result": "> 10", "unit": "µM"},
      {"measurement": "% Efficiency RARγ", "setting": "RARγ", "result": 1, "unit": "%"},
      {"measurement": "Kd", "setting": "RARβ", "result": 34, "unit": "nM"}
    ]},
    {"smiles": "CC(C)(C)c1ccc(C(=O)Nc2ccc(C(=O)O)c(F)c2)cc1Oc1ccc(C(F)(F)F)cc1", "note": "[Compound 13, 4-[[4′-tert-Butyl-3′-(4″-trifluoromethyl)phenoxy]benzoylamino]-2-fluorobenzoic Acid]", "values": [
      {"measurement": "Emax", "setting": "RARα; [1]", "result": 0, "unit": "%"},
      {"measurement": "EC50", "setting": "RARα", "result": "> 10", "unit": "µM"},
      {"measurement": "EC50", "setting": "RARγ", "result": "> 10", "unit": "µM"},
      {"measurement": "% Efficiency RARγ", "setting": "RARγ", "result": 4, "unit": "%"},
      {"measurement": "Kd", "setting": "RARβ", "result": 4570, "unit": "nM"}
    ]}
  ]
}
